Measured values from patent US11680086B2, “Lipopeptide for potently inhibiting HIV, derivative thereof, pharmaceutical composition thereof and use thereof” (Institute of Pathogen Biology, Chinese Academy of Medical …, priority 2017, dated 2023).
Peptide text beside a SMILES is read from it. * marks the point of attachment. X1 = Cc1c(C)c2c(c(C)c1OC(=O)CCC(=O)*)CCC(C)(CCCC(C)CCCC(C)CCCC(C)C)O2; Stearoyl = CCCCCCCCCCCCCCCCCC(=O)*; Palmitoyl = CCCCCCCCCCCCCCCC(=O)*

What was measured:
[1] = tested on: NL4-3 pseudovirus carrying T-20 resistance mutation site of NHR; experiment: inhibition of T-20 resistant strains; assay type: cell-based, HIV-1; conditions: strains with single or double mutations
[2] = tested on: SIV pseudoviruses SIVpbj and SIV239; experiment: inhibition of SIV pseudoviruses; assay type: cell-based
Description: The supernatant was discarded from the wells. […] Inhibition rate (%) and IC50 value were calculated.
In order to further reflect the antiviral advantages of the potent lipopeptides of the present invention, their inhibitory activity against HIV-2 and SIV was determined in the example. The methods of antiviral activity assays used were described in the literatures published by the present inventors (see the References 13 and 30 listed in the Background Art). The molecular cloning plasmid pROD of the HIV-2 strain ROD (HIV-2ROD) was kindly provided by Professor Nuno Taveira from the University of Lisbon, Portugal, and the plasmids expressing the SIV strain SIVpbj (SIVPBJ) and SIV239 envelope proteins (pSIVpbj-Env and pSIV239, respectively) were kindly provided by Professor Xu Jianqing from the Fudan University. The preparation of the infectious ROD was the same as that of the infectious JRCSF in the above section 2.1, and the pseudoviruses SIVpbj and SIV239 were prepared by a method same as that described in the above Examples 2 and 3.

[3] = target: N39 (NHR-derived polypeptide of gp41) (Human immunodeficiency virus type 1 group M subtype B, UniProt P04578); assay type: binding, HIV-1; conditions: 10 μM each, PBS pH 7.2
Sequence of N39 (NHR-derived polypeptide of gp41) (P04578 528-566): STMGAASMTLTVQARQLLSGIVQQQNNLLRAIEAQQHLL
Description: (§1) The circular dichroism spectrophotometer was Jasco-815 by JASCO Inc., and the assay method was referred to the papers published by the inventors (see the References 18 and 30 listed in the Background Art). […] The N39 and an inhibitor were separately dissolved in a phosphate buffered saline (PBS) to prepare a PBS solution (pH 7.2) of a concentration of 20 μM. The N39 was mixed with an inhibitor at a volume ratio of 1:1 (final concentration of 10 μM for each), the mixed sample was placed at 37° C. for 30 minutes to fully react, and then the helix content and Tm value of the resultant complex were measured by the circular dichroism spectrophotometer. The scan wavelength range of the device was 195-260 nm with a wavelength interval of 1 nm, and the values measured by scanning for three times were averaged. Based on the CD signals, the interaction between the polypeptides and the helix content were determined. Then, the sample for CD signal measurement was transferred to the temperature scanning sample cell, the program of the CD device was set to temperature scanning with a detection wavelength of 220 nm and scanning range of 20-98° C., and the program scan was performed to obtain the curve of the CD signals vs temperature, based on which the Tm value was calculated. Based on the Tm value, the stability of the formed helical structure of the inhibitor and N39 was judged.

[4] = circular dichroism secondary structure analysis of the inhibitors themselves; assay type: physicochemical; conditions: for secondary structure of the inhibitor itself (in words): 10 μM, 20 μM and 40 μM in PBS
Description: as §1
For easy analysis, the α-helix content and the Tm value of the inhibitors were measured at concentrations of 10 μM, 20 μM, and 40 μM (PBS solution), respectively.

HIV-1 = conditions: cell fusion, entry and replication; compared with parent or control peptide
Excerpt: HIV-1 pseudovirus-mediated cell entry inhibition assay: basic steps included: (1) Preparation of HIV-1 pseudovirus: the 293T cells were co-transfected with a plasmid expressing the envelope protein (Env) of HIV-1 strain NL4-3 (i.e., a recombinant expression plasmid obtained by inserting the gene encoding the envelope protein (ENV) of the D36G mutant of the HIV-1 strain NL4-3 in the Table 2 of the Reference 14 listed in the Background Art into the vector pcDNA3.1(−)) and the HIV-1 backbone plasmid pSG3Δenv (provided by the AIDS Reagent Program of National Institutes of Health (NIH), catalog number: 11051) by using a cell transfection reagent, incubated in a cell incubator of 37° C. and 5% CO2 for 6 hours, and then the medium was changed, and the cells were further incubated for 48 hours. The cell culture supernatant containing pseudovirus particles was pipetted and filtered with a 0.45 μm filter to collect the supernatant, then 20% fetal bovine serum (FBS) was added thereto, the final solution was transferred to a polypropylene tube, and stored at −80° C. for ready for use or directly subjected to virus titration. (2) Titration of HIV-1 pseudovirus: the viruses were diluted by 5 folds in a 96-well plate, and 4 replicate wells with 8 gradients were set to a final volume of 100 microliters. The TZM-b1 cells were trypsinized and counted, and the cells were diluted to 1×10^5 cells/ml with DMEM complete medium; 100 μl of cells dilution (containing 15 μg/ml DEAE-dextran) per well were added and cultured at 37° C. and 5% CO2 for 48 hours. The 96-well plate was then taken from the cell culture incubator. The supernatant was discarded from the wells. To each well, 30 μl of a cell lysate was added, and after 10 minutes, 100 μl of a luciferase detection reagent was added. 100 μl of liquid was pipetted from each well and added to a corresponding 96-well white plate, and the luminescence values were read by a microplate photometer. The virus titer was calculated by the Reed-Muench method. […]

Row | SMILES | inhibitory activity against T-20 resistant strains (in words) [1] | inhibitory activity against SIV (in words) [2] | Tm value of the complex with N39 [3] | helix content of the complex with N39 [3] | secondary structure of the inhibitor itself (in words) [4] | antiviral activity (in words) (HIV-1) | interaction / binding to N39 (in words) [3] | helix content and Tm value of the inhibitor itself (in words) ([4]; among the four potent lipopeptides)
1 | CCCCCCCCCCCCCCCC(=O)NCCCC[C@H](NC(=O)[C@H](CCC(=O)O)NC(=O)[C@H](CC(C)C)NC(=O)[C@H](CCCCN)NC(=O)[C@H](CCCCN)NC(=O)[C@H](CC(C)C)NC(=O)[C@H](CCC(=O)O)NC(=O)[C@H](CCC(=O)O)NC(=O)[C@H](CCC(=O)O)NC(=O)[C@H](CC(N)=O)NC(=O)[C@H](CCCCN)NC(=O)[C@H](CCCCN)NC(=O)[C@H](CCC(N)=O)NC(=O)[C@H](CCC(N)=O)NC(=O)[C@H](CCC(=O)O)NC(=O)[C@H](CCC(=O)O)NC(=O)[C@H](C)NC(=O)[C@H](CCCCN)NC(=O)[C@H](CCCCN)NC(=O)[C@H](CC(C)C)NC(=O)[C@H](CC(C)C)NC(=O)[C@H](CCC(=O)O)NC(=O)[C@H](CCC(=O)O)NC(=O)[C@@H](NC(=O)[C@H](CCCCN)NC(=O)[C@H](CCC(N)=O)NC(=O)[C@H](CCC(=O)O)NC(=O)[C@H](Cc1c[nH]c2ccccc12)NC(C)=O)[C@@H](C)CC)C(N)=O [LP-52] (Ac-WEQKIEELLKKAEEQQKKNEEELKKLEK(Palmitoyl)-NH2) | thousands to tens of thousands of times better than that of the LP-40 | extremely potent inhibitory activity | 79.1 °C | 63.8% | distinct helical structure |  |  | 
2 | CC[C@H](C)[C@H](NC(=O)[C@H](CCCCN)NC(=O)[C@H](CCC(N)=O)NC(=O)[C@H](CCC(=O)O)NC(=O)[C@H](Cc1c[nH]c2ccccc12)NC(C)=O)C(=O)N[C@@H](CCC(=O)O)C(=O)N[C@@H](CCC(=O)O)C(=O)N[C@@H](CC(C)C)C(=O)N[C@@H](CC(C)C)C(=O)N[C@@H](CCCCN)C(=O)N[C@@H](CCCCN)C(=O)N[C@@H](C)C(=O)N[C@@H](CCC(=O)O)C(=O)N[C@@H](CCC(=O)O)C(=O)N[C@@H](CCC(N)=O)C(=O)N[C@@H](CCC(N)=O)C(=O)N[C@@H](CCCCN)C(=O)N[C@@H](CCCCN)C(=O)N[C@@H](CC(N)=O)C(=O)N[C@@H](CCC(=O)O)C(=O)N[C@@H](CCC(=O)O)C(=O)N[C@@H](CCC(=O)O)C(=O)N[C@@H](CC(C)C)C(=O)N[C@@H](CCCCN)C(=O)N[C@@H](CCCCN)C(=O)N[C@@H](CC(C)C)C(=O)N[C@@H](CCC(=O)O)C(=O)N[C@@H](CCCCNC(=O)CCC(=O)Oc1c(C)c(C)c2c(c1C)CCC(C)(CCCC(C)CCCC(C)CCCC(C)C)O2)C(N)=O (some centres unmarked) [LP-85] (Ac-WEQKIEELLKKAEEQQKKNEEELKKLEK(X1)-NH2) | thousands to tens of thousands of times better than that of the LP-40 | extremely potent inhibitory activity |  |  |  | strong antiviral effects | strong helical binding stability | 
3 | CCCCCCCCCCCCCCCC(=O)NCCCC[C@H](NC(=O)[C@H](CCC(=O)O)NC(=O)[C@H](CC(C)C)NC(=O)[C@H](CCCCN)NC(=O)[C@H](CCCCN)NC(=O)[C@H](CC(C)C)NC(=O)[C@H](CCC(=O)O)NC(=O)[C@H](CCC(=O)O)NC(=O)[C@H](CCC(=O)O)NC(=O)[C@H](CC(N)=O)NC(=O)[C@H](CCCCN)NC(=O)[C@H](CCCCN)NC(=O)[C@H](CCC(N)=O)NC(=O)[C@H](CCC(N)=O)NC(=O)[C@H](CCC(=O)O)NC(=O)[C@H](CCC(=O)O)NC(=O)[C@H](C)NC(=O)[C@H](CCCCN)NC(=O)[C@H](CCCCN)NC(=O)[C@H](CC(C)C)NC(=O)[C@H](CC(C)C)NC(=O)[C@H](CCC(=O)O)NC(=O)[C@H](CCC(=O)O)NC(=O)[C@@H](NC(=O)[C@H](CC(N)=O)NC(=O)[C@H](C)NC(=O)[C@H](CCC(=O)O)NC(=O)[C@H](CC(C)C)NC(C)=O)[C@@H](C)CC)C(N)=O [LP-51] (Ac-LEANIEELLKKAEEQQKKNEEELKKLEK(Palmitoyl)-NH2) | thousands to tens of thousands of times better than that of the LP-40 | extremely potent inhibitory activity | 72 °C |  | distinct helical structure | comparable to that of the LP-50 |  | 
4 | CCCCCCCCCCCCCCCCCC(=O)NCCCC[C@H](NC(=O)[C@H](CCC(=O)O)NC(=O)[C@H](CC(C)C)NC(=O)[C@H](CCCCN)NC(=O)[C@H](CCCCN)NC(=O)[C@H](CC(C)C)NC(=O)[C@H](CCC(=O)O)NC(=O)[C@H](CCC(=O)O)NC(=O)[C@H](CCC(=O)O)NC(=O)[C@H](CC(N)=O)NC(=O)[C@H](CCCCN)NC(=O)[C@H](CCCCN)NC(=O)[C@H](CCC(N)=O)NC(=O)[C@H](CCC(N)=O)NC(=O)[C@H](CCC(=O)O)NC(=O)[C@H](CCC(=O)O)NC(=O)[C@H](C)NC(=O)[C@H](CCCCN)NC(=O)[C@H](CCCCN)NC(=O)[C@H](CC(C)C)NC(=O)[C@H](CC(C)C)NC(=O)[C@H](CCC(=O)O)NC(=O)[C@H](CCC(=O)O)NC(=O)[C@@H](NC(C)=O)[C@@H](C)CC)C(N)=O [LP-90] (Ac-IEELLKKAEEQQKKNEEELKKLEK(Stearoyl)-NH2) | much lower active against T-20 resistant mutant strains than the LP-52 and LP-80 | extremely potent inhibitory activity | 71.1 °C |  |  | potent antiviral activity |  | 
5 | CCCCCCCCCCCCCCCCCC(=O)NCCCC[C@H](NC(=O)[C@H](CCC(=O)O)NC(=O)[C@H](CC(C)C)NC(=O)[C@H](CCCCN)NC(=O)[C@H](CCCCN)NC(=O)[C@H](CC(C)C)NC(=O)[C@H](CCC(=O)O)NC(=O)[C@H](CCC(=O)O)NC(=O)[C@H](CCC(=O)O)NC(=O)[C@H](CC(N)=O)NC(=O)[C@H](CCCCN)NC(=O)[C@H](CCCCN)NC(=O)[C@H](CCC(N)=O)NC(=O)[C@H](CCC(N)=O)NC(=O)[C@H](CCC(=O)O)NC(=O)[C@H](CCC(=O)O)NC(=O)[C@H](C)NC(=O)[C@H](CCCCN)NC(=O)[C@H](CCCCN)NC(=O)[C@H](CC(C)C)NC(=O)[C@H](CC(C)C)NC(=O)[C@H](CCC(=O)O)NC(=O)[C@H](CCC(=O)O)NC(=O)[C@@H](NC(=O)[C@H](CCCCN)NC(=O)[C@H](CCC(N)=O)NC(=O)[C@H](CCC(=O)O)NC(=O)[C@H](Cc1c[nH]c2ccccc12)NC(C)=O)[C@@H](C)CC)C(N)=O [LP-80] (Ac-WEQKIEELLKKAEEQQKKNEEELKKLEK(Stearoyl)-NH2) | thousands to tens of thousands of times better than that of the LP-40 | extremely potent inhibitory activity | 79 °C |  | distinct helical structure |  |  | the higher helix content and Tm value
